Data reported in US8501713B2, “Drug combinations for the treatment of duchenne muscular dystrophy” (Summit Corporation PLC, priority 2007, dated 2013).

Tested on: Utrophin A promoter linked to a luciferase reporter gene
Assay: Luciferase reporter assay (murine H2K cells)
Type: cell-based
Conditions: for activity at 10 µM: Mus musculus, H2K mdx, read-out: Activity
Method in brief: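 Compound at 10 μM final was applied for 48 hrs to plated H2K mdx myoblasts (33° C, 10% CO2, interferon-containing medium) bearing a luciferase gene under the utrophin A promoter. Luminescence from lysed cells served as read-out.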

[1] = luciferase level relative to control, H2K/mdx/Utro A reporter cells, compound 10 μM final concentration
[2] = luciferase reporter assay in murine H2K cells, classified relative to control

Structure (SMILES) | activity at 10 µM [1] | other results
O=C(C=Cc1ccccc1)Nc1ccc2oc(-c3cccnc3)nc2c1 [Example 52, N-(2-(pyridin-3-yl)benzo[d]oxazol-5-yl)cinnamamide] | < 200% | 
Clc1ccc(-c2nc3cc4c(cc3o2)OCO4)cc1Cl [Example 361, 2-(3,4-chlorophenyl)-5,6-methylenedioxybenzoxazole] |  | Activity [1]: + (Up to 200% relative to control)
COc1ccc2oc(-c3ccc(C)c(N)c3)nc2c1 [Example 686] |  | Activity [2]: ++ (Between 201% and 300% relative to control)
Nc1ccc2nc(-c3cccc(Cl)c3)oc2c1 [Example 598] |  | Activity [2]: +++ (Between 301% and 400% relative to control)
Clc1ccc2nc(-c3ccccc3)oc2c1 [Example 112, 6-chloro-2-phenylbenzo[d]oxazole] | < 200% | 
O=C(Nc1ccc2oc(-c3ccc(Cl)cc3)nc2c1)C1CCCC1 [Example 346, N-(2-(4-chlorophenyl)benzo[d]oxazol-5-yl)cyclopentanecarboxamide] | < 200% | 
COc1ccc(-c2ccc3oc(-c4ccc(C)cc4)nc3c2)cc1 [Example 199, 5-(4-methoxyphenyl)-2-p-tolylbenzo[d]oxazole] | < 200% | 
CCC(=O)Nc1ccc2oc(-c3ccc(Cl)cc3)nc2c1 [Example 207, N-(2-(4-chlorophenyl)benzo[d]oxazol-5-yl)propionamide] | > 401% | 
C[C@H](N)C(=O)Nc1ccc2oc(-c3ccc(Cl)cc3)nc2c1 [Example 272, (S)-2-amino-N-(2-(4-chlorophenyl)benzo[d]oxazol-5-yl)propanamide] | 301 to 400% | 
CCN(CC)c1ccc(-c2nc3cc(Cl)ccc3o2)cc1 [Example 131, 4-(5-chlorobenzo[d]oxazol-2-yl)-N,N-diethylaniline] | 301 to 400% | 
CCCC(=O)Nc1ccc2sc(-c3ccc(C)cc3)nc2c1 [Example 216, N-(2-p-tolylbenzo[d]thiazol-5-yl)butyramide] | > 401% | 
Nc1cnc2oc(-c3ccccc3)nc2c1 [Example 169, 2-phenyloxazolo[5,4-b]pyridin-6-amine] | < 200% | 
O=[N+]([O-])c1cc(-c2nc3ccccc3s2)ccc1Cl [Example 523] |  | Activity [2]: + (Up to 200% relative to control)
Nc1cccc(-c2ccc3oc(-c4ccc(Cl)cc4)nc3c2)c1 [Example 328, 3-(2-(4-chlorophenyl)benzo[d]oxazol-5-yl)aniline] | > 401% | 
CCOc1ccc(-c2nc3cc(N)ccc3o2)cc1 [Example 549] |  | Activity [2]: + (Up to 200% relative to control)
CCCC(=O)Nc1ccc2nc(-c3ccc(Cl)cc3)oc2c1 [Example 256, N-(2-(4-chlorophenyl)benzo[d]oxazol-6-yl)butyramide] | 201 to 300% | 
O=C(CCc1ccccc1)Nc1ccc2oc(-c3cccnc3)nc2c1 [Example 51, 3-phenyl-N-(2-(pyridin-3-yl)benzo[d]oxazol-5-yl)propanamide] | < 200% | 
CC(C)C(=O)Nc1ccc2oc(SCc3ccc(Cl)cc3)nc2c1 [Example 383, N-(2-(4-chlorobenzylthio)benzo[d]oxazol-5-yl)isobutyramide] | < 200% | 
CCCNC(=O)c1ccc2oc(-c3ccc(C)cc3)nc2c1 [Example 177, N-propyl-2-p-tolylbenzo[d]oxazole-5-carboxamide] | > 401% | 
CCS(=O)(=O)c1ccc2ocnc2c1 [Example 573] |  | Activity [2]: + (Up to 200% relative to control)

Structure (SMILES) | activity at 10 µM [1] | other results
Cc1ccc(-c2nc3cnccc3o2)cc1 [Example 192, 2-p-tolyloxazolo[4,5-c]pyridine] | < 200% | 
Clc1ccc(-c2nc3cc(NCc4ccccc4)ccc3o2)cc1 [Example 184, N-benzyl-2-(4-chlorophenyl)benzo[d]oxazol-5-amine] | < 200% | 
Cc1cc2nc(-c3ccc(Cl)cc3)oc2cc1C [Example 222, 2-(4-chlorophenyl)-5,6-dimethylbenzo[d]oxazole] | > 401% | 
CCCc1ccc(-c2nc3ccc(C(=O)O)cc3o2)cc1 [Example 109, 2-(4-propylphenyl)benzo[d]oxazole-6-carboxylic acid] | < 200% | 
O=C(Nc1nc2ccccc2s1)c1ccccc1Br [Example 616] |  | Activity [2]: ++++ (Above 401% relative to control)
CCS(=O)(=O)c1ccc2oc(-c3cccc(Cl)c3F)nc2c1 [Example 391, 2-(3-chloro-2-fluorophenyl)-5-(ethylsulfonyl)benzo[d]oxazole] | 201 to 300% | 
O=C(Cc1ccccc1)Nc1ccc2oc(-c3cccnc3)nc2c1 [Example 50, 2-phenyl-N-(2-(pyridin-3-yl)benzo[d]oxazol-5-yl)acetamide] | < 200% | 
Nc1ccc(-c2nc3ccccc3o2)c(O)c1 [Example 484] |  | Activity [2]: ++ (Between 201% and 300% relative to control)
Cc1cc(-c2nc3cc(N)ccc3o2)ccc1Br [Example 649] |  | Activity [2]: +++ (Between 301% and 400% relative to control)
CC(C)C(=O)Nc1ccc2sc(-c3cccc(Cl)c3)nc2c1 [Example 296, N-(2-(3-chlorophenyl)benzo[d]thiazol-5-yl)isobutyramide] | > 401% | 
CC(C)C(=O)Nc1ccc2oc(-c3cccc(C(F)(F)F)c3)nc2c1 [Example 203, N-(2-(3-(trifluoromethyl)phenyl)benzo[d]oxazol-5-yl)isobutyramide] | < 200% | 
CC(C)C(=O)Nc1ccc2oc(-c3cccc4ccccc34)nc2c1 [Example 410, N-(2-(naphthalen-1-yl)benzo[d]oxazol-5-yl)isobutyramide] | < 200% | 
CC(C)C(=O)Nc1ccc2oc(-c3ccc(C4CCCCC4)cc3)nc2c1 [Example 430, N-(2-(4-cyclohexylphenyl)benzo[d]oxazol-5-yl)isobutyramide] | < 200% | 
CCS(=O)(=O)c1ccc2oc(-c3ccc(-c4ccccc4)cc3)nc2c1 [Example 426, 2-(biphenyl-4-yl)-5-(ethylsulfonyl)benzo[d]oxazole] | < 200% | 
CCCCNc1ccc2oc(-c3ccccc3)nc2c1 [Example 167, N-butyl-2-phenylbenzo[d]oxazol-5-amine] | > 401% | 
Cc1cc2nc(-c3cc(N)ccc3Cl)oc2cc1C [Example 646] |  | Activity [2]: +++ (Between 301% and 400% relative to control)
Clc1ccc2nc(-c3ccncc3)oc2c1 [Example 331, 6-chloro-2-(pyridin-4-yl)benzo[d]oxazole] | < 200% | 
CC(=O)Nc1ccc(-c2nc3cc(NC(C)=O)ccc3o2)cc1 [Example 365, N-(4-(5-acetamidobenzo[d]oxazol-2-yl)phenyl)acetamide] | < 200% | 
CC(C)C(=O)Nc1ccc2oc(C3CCCC3)nc2c1 [Example 364, N-(2-cyclopentylbenzo[d]oxazol-5-yl)isobutyramide] | < 200% | 
Cc1cc2nc(-c3ccc(N)cc3)oc2cc1C [Example 485] |  | Activity [2]: ++ (Between 201% and 300% relative to control)

Structure (SMILES) | activity at 10 µM [1] | other results
COc1ccc(-c2ccc3oc(-c4ccc(Cl)cc4)nc3c2)cn1 [Example 306, 2-(4-chlorophenyl)-5-(6-methoxypyridin-3-yl)benzo[d]oxazole] |  | Activity [1]: + (Up to 200% relative to control)
CC(C)C(=O)Nc1ccc2oc(C3CCCCC3)nc2c1 [Example 248, N-(2-cyclohexylbenzo[d]oxazol-5-yl)isobutyramide] | > 401% | 
CC(C)C(=O)Nc1ccc2nc(-c3ccc(Cl)cc3)oc2c1 [Example 255, N-(2-(4-chlorophenyl)benzo[d]oxazol-6-yl)isobutyramide] | > 401% | 
CCN(CC)c1ccc(-c2nc3cc(NC(=O)c4cccnc4)ccc3o2)cc1 [Example 60, N-(2-(4-(diethylamino)phenyl)benzo[d]oxazol-5-yl)nicotinamide] | 201 to 300% | 
Cc1ccc(-c2nc3ccccc3s2)cc1N [Example 479] |  | Activity [2]: ++ (Between 201% and 300% relative to control)
O=C(Nc1ccc2oc(-c3cccnc3)nc2c1)c1ccccc1 [Example 39, N-(2-(pyridin-3-yl)benzo[d]oxazol-5-yl)benzamide] | < 200% | 
Cc1ccc2nc(-c3ccc(N)cc3)sc2c1 [Example 664] |  | Activity [2]: ++ (Between 201% and 300% relative to control)
O=C(Nc1ccccc1-c1nc2ccccc2[nH]1)c1ccc(Cl)cc1Cl [Example 500] |  | Activity [2]: + (Up to 200% relative to control)
CCS(=O)(=O)c1ccc2oc(-c3ccc4ccccc4c3O)nc2c1 [Example 437, 2-(5-(ethylsulfonyl)benzo[d]oxazol-2-yl)naphthalen-1-ol] | > 401% | 
Nc1ccc2oc(-c3ccc(N4CCCC4)cc3)nc2c1 [Example 149, 2-(4-(pyrrolidin-1-yl)phenyl)benzo[d]oxazol-5-amine] | 201 to 300% | 
CCCCc1ccc(-c2nc3ccc([N+](=O)[O-])cc3o2)nc1 [Example 262, 2-(5-butylpyridin-2-yl)-6-nitrobenzo[d]oxazole] | 201 to 300% | 
CC(=O)Nc1cccc(-c2ccc3oc(-c4ccc(Cl)cc4)nc3c2)c1 [Example 575] |  | Activity [2]: ++++ (Above 401% relative to control)
Cc1ccc2nc(-c3ccc(NC(=O)c4cccnc4)cc3)sc2c1 [Example 638] |  | Activity [2]: +++ (Between 301% and 400% relative to control)
FC(F)(F)Oc1ccc2oc(-c3ccc4ccccc4c3)nc2c1 [Example 448, 2-(Naphthalen-2-yl)-5-(trifluoromethoxy)benzo[d]oxazole] | > 401% | 
O=C(Nc1ccc2c(c1)OCO2)c1sc2ccccc2c1Cl [Example 618] |  | Activity [2]: ++++ (Above 401% relative to control)
CCN(CC)c1ccc(-c2nc3ccccc3o2)cc1 [Example 143, 4-(benzo[d]oxazol-2-yl)-N,N-diethylaniline] | 201 to 300% | 
CC(C)C(=O)Nc1ccc(-c2nc3cc(Cl)ccc3o2)cc1 [Example 318, N-(4-(5-chlorobenzo[d]oxazol-2-yl)phenyl)isobutyramide] | 201 to 300% | 
Cc1ccc2sc(-c3ccc(NC(=O)c4cc(-n5cnnc5)ccc4Cl)cc3)nc2c1 [Example 688] |  | Activity [2]: ++ (Between 201% and 300% relative to control)
